Drawing on PubChem BioAssay (NCI), this text covers TGI and GI50 for twelve compounds.

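Interpolation was linear, between the two tested concentrations surrounding the appropriate level; five concentrations were tested over 48 hours in 96-well plates. GI50: concentration for 50% inhibition of growth. The concentration for full growth arrest is given as TGI.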 A value given as a limit tells only on which side of the number the result lay.

Among the test systems are HCC-2998 colon; HL-60(TB) leukemia; OVCAR-5 ovarian; UACC-62 melanoma; 786-0 renal; TK-10 renal; SN12C renal; HOP-62 NSCLC; MDA-MB-435; NCI/ADR-RES ovarian; PC-3 prostate; NCI-H226 lung.
What all share (experiment): NCI anticancer screen, dose series, 48 h

On to `CCC1(N=[N+]=[N-])C(=O)Nc2cc(C)ccc2C1=O` (stereo unspecified), for which the TGI in the test on HCC-2998 colon was above 100 µM; in the test with HL-60(TB) leukemia, 53.6 µM; in the test on OVCAR-5 ovarian it was above 100 µM; with UACC-62 melanoma, above 100 µM; in the test with 786-0 renal, above 100 µM; with TK-10 renal it was above 100 µM. The TGI in the test on SN12C renal and in the test with HOP-62 NSCLC was above 100 µM each time.
Turning to `C=C[C@H]1CN2CCc3c([nH]c4c([C@H]5CCCN5C)c(O)ccc34)[C@@H]2C[C@@H]1C[C@H]1c2[nH]c3ccccc3c2CCN1C`, the TGI in the test with HCC-2998 colon was found to be 1.21 µM; in the test on HL-60(TB) leukemia it was 0.564 µM; with OVCAR-5 ovarian it was 3.26 µM; in the test with UACC-62 melanoma, 3.16 µM; in the test on MDA-MB-435 it was 2.83 µM; in the test on 786-0 renal, 2.77 µM. Besides, the TGI with TK-10 renal stood at 3.36 µM; with NCI/ADR-RES ovarian it was 3.38 µM; in the test on SN12C renal it was 3.04 µM; in the test on HOP-62 NSCLC, 3 µM; in the test with PC-3 prostate, 3.11 µM. Moreover, the GI50 in the test on HL-60(TB) leukemia was 0.0562 µM.
With `CC(=O)Nc1ccc(C2[C@H]3C(=O)N(c4ccc(Cc5ccc(N6C(=O)[C@@H]7ON(c8ccccc8)C(c8ccc(NC(C)=O)cc8)[C@@H]7C6=O)cc5)cc4)C(=O)[C@H]3ON2c2ccccc2)cc1` (stereo partly specified), the TGI in the test with HCC-2998 colon, in the test with HL-60(TB) leukemia, in the test with OVCAR-5 ovarian, in the test with UACC-62 melanoma, in the test on 786-0 renal and with TK-10 renal was above 100 µM each time. Besides, the TGI in the test on NCI-H226 lung, in the test with SN12C renal and with HOP-62 NSCLC was above 100 µM each time.
For the compound `NC1CC(=O)c2cc(Br)sc21` (stereo unspecified), the TGI in the test on HCC-2998 colon, in the test with HL-60(TB) leukemia, with OVCAR-5 ovarian, with UACC-62 melanoma, in the test on MDA-MB-435 and with 786-0 renal was above 100 µM throughout. Also, the TGI in the test with TK-10 renal, with NCI/ADR-RES ovarian, in the test on SN12C renal, in the test on HOP-62 NSCLC and with PC-3 prostate was above 100 µM throughout.
On to `CC(=O)OCC1OC(n2c(=O)n(-c3ccccc3)c(=O)c3ccccc32)C(OC(C)=O)C(OC(C)=O)C1OC(C)=O` (stereo unspecified), for which the TGI in the test on HCC-2998 colon, in the test on HL-60(TB) leukemia, with OVCAR-5 ovarian, in the test with UACC-62 melanoma, in the test on 786-0 renal and in the test on TK-10 renal was above 100 µM each time. In addition, the TGI in the test on NCI-H226 lung, with SN12C renal and in the test with HOP-62 NSCLC was above 100 µM each time.
Consider `CN(C)CCO/N=C1/C=C2CC[C@H]3[C@@H]4CC[C@H](O)[C@@]4(C)CC[C@@H]3[C@@]2(C)CC1`, for which the TGI was 28.1 µM in the test with HCC-2998 colon; above 100 µM in the test on OVCAR-5 ovarian; 26 µM in the test with UACC-62 melanoma; 12.4 µM with MDA-MB-435; 27.9 µM with 786-0 renal; 28.6 µM with TK-10 renal. The TGI is 8.87 µM in the test on NCI-H226 lung; 17.1 µM in the test on NCI/ADR-RES ovarian; 32.8 µM in the test on SN12C renal; above 87.4 µM in the test with HOP-62 NSCLC; above 100 µM in the test with PC-3 prostate.
For `COc1ccc(CN(CCc2c[nH]c3ccccc23)Cc2ccc(OC)cc2)cc1`, the TGI in the test with HCC-2998 colon is 43.1 µM; in the test with OVCAR-5 ovarian, 9.62 µM; in the test with UACC-62 melanoma, 5.6 µM; in the test with MDA-MB-435 it was 11.7 µM; in the test with 786-0 renal, 12.6 µM; in the test with TK-10 renal, 3.97 µM. Besides, the TGI in the test on NCI-H226 lung is 2.95 µM; in the test on NCI/ADR-RES ovarian, 9.79 µM; in the test on SN12C renal, 2.24 µM; in the test with HOP-62 NSCLC, 11.3 µM; with PC-3 prostate it was 13 µM.
For `CC1OC(O[C@H]2CC[C@]3(C)[C@H]4CC=C5[C@@H]6[C@@H](C)[C@H](C)CC[C@]6(C(=O)O)CC[C@@]5(C(=O)O)[C@]4(C)CC[C@H]3C2(C)C)C(O)C(O)C1O` (stereo partly specified), the TGI with HCC-2998 colon, with HL-60(TB) leukemia, in the test on OVCAR-5 ovarian, with UACC-62 melanoma, with MDA-MB-435 and in the test with 786-0 renal was above 75 µM each time. Moreover, the TGI with TK-10 renal, in the test with NCI/ADR-RES ovarian, with SN12C renal, in the test on HOP-62 NSCLC and in the test on PC-3 prostate was above 75 µM throughout.
Consider `CC1[C@@H](OCc2ccccc2)COC(=O)N1Cc1ccccc1` (stereo partly specified), for which the TGI in the test with OVCAR-5 ovarian, with UACC-62 melanoma, with MDA-MB-435, with 786-0 renal, in the test on TK-10 renal and in the test with NCI-H226 lung was above 100 µM in each case. In addition, the TGI in the test with NCI/ADR-RES ovarian, in the test on SN12C renal, in the test on HOP-62 NSCLC and in the test with PC-3 prostate was above 100 µM in each case.
Take `CCOC(=O)CC[C@@H](NC(=O)c1ccc(N[C@@H]2c3cc4c(cc3C(c3cc(OC)c(O)c(OC)c3)C3C(=O)OC[C@@H]32)OCO4)cc1)C(=O)OCC` (stereo partly specified): the TGI in the test with HCC-2998 colon is 0.318 µM; with HL-60(TB) leukemia, 0.05 µM; in the test with OVCAR-5 ovarian, 0.404 µM; in the test with UACC-62 melanoma, 0.0557 µM; in the test with 786-0 renal, above 10 µM; in the test with TK-10 renal, 0.375 µM. Also, the TGI with SN12C renal is 0.0897 µM; with HOP-62 NSCLC, 0.0424 µM.
For `C=C[C@@]1(C)CC(=O)[C@]2(O)[C@@]3(C)[C@@H](OC(C)=O)CCC(C)(C)[C@@H]3[C@H](OC(C)=O)[C@H](OC(C)=O)[C@@]2(C)O1`, the TGI in the test with HCC-2998 colon, in the test with OVCAR-5 ovarian, in the test on UACC-62 melanoma, with MDA-MB-435, with 786-0 renal and in the test on NCI-H226 lung was above 100 µM in each case. The TGI in the test with NCI/ADR-RES ovarian, with SN12C renal, in the test on HOP-62 NSCLC and in the test on PC-3 prostate was above 100 µM in each case.
On to `CC(=O)O[C@H]1C(=O)[C@@]2(C)[C@H]([C@H](OC(=O)C3CCCCC3)[C@]3(O)C[C@H](OC(=O)[C@H](O)[C@@H](NC(=O)C4CCCCC4)C4CCCCC4)C(C)=C1C3(C)C)[C@]1(OC(C)=O)CO[C@@H]1C[C@@H]2O`, for which the TGI in the test on HCC-2998 colon amounted to 0.27 µM; in the test with OVCAR-5 ovarian, 0.121 µM; in the test on UACC-62 melanoma, 3.89 µM; in the test on MDA-MB-435 it was 0.0105 µM; with 786-0 renal, 6.97 µM; in the test with TK-10 renal it was 1.3 µM. Moreover, the TGI with NCI-H226 lung came out at 3.88 µM; in the test with NCI/ADR-RES ovarian it was 5.68 µM; in the test with SN12C renal, 14.8 µM; in the test on HOP-62 NSCLC, 0.803 µM; with PC-3 prostate, 1.96 µM.
